The results in this text go back to patent US4486602A, “Valienamine derivatives, their production and use” (Takeda Chemical Industries, Ltd., priority 1980, dated 1984).

T2 sequence (P56729 with tags, fused parts or gaps limits assumed): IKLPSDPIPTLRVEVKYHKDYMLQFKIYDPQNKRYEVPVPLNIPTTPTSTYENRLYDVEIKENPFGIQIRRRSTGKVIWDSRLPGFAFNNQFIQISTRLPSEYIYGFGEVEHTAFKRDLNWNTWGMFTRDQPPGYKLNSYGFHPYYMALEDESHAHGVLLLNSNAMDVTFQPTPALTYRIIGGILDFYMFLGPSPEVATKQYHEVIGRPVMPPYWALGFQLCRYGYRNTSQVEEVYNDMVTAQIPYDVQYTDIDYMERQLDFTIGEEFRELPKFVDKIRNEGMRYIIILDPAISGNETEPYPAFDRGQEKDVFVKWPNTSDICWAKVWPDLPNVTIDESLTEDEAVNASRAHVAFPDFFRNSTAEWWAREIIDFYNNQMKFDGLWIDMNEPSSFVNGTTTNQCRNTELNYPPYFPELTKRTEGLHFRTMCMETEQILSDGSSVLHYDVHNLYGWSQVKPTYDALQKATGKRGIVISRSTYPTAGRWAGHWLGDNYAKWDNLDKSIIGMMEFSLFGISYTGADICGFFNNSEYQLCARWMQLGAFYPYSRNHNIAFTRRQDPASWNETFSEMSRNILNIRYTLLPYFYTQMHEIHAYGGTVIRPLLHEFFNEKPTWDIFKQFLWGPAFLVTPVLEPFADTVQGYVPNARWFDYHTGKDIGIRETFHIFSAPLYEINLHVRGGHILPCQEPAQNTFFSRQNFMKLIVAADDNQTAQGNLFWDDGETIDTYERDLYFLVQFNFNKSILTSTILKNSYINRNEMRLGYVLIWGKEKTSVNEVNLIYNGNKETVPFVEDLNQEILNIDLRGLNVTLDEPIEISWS
T2 sequence (P56729 with tags, fused parts or gaps partner limits assumed): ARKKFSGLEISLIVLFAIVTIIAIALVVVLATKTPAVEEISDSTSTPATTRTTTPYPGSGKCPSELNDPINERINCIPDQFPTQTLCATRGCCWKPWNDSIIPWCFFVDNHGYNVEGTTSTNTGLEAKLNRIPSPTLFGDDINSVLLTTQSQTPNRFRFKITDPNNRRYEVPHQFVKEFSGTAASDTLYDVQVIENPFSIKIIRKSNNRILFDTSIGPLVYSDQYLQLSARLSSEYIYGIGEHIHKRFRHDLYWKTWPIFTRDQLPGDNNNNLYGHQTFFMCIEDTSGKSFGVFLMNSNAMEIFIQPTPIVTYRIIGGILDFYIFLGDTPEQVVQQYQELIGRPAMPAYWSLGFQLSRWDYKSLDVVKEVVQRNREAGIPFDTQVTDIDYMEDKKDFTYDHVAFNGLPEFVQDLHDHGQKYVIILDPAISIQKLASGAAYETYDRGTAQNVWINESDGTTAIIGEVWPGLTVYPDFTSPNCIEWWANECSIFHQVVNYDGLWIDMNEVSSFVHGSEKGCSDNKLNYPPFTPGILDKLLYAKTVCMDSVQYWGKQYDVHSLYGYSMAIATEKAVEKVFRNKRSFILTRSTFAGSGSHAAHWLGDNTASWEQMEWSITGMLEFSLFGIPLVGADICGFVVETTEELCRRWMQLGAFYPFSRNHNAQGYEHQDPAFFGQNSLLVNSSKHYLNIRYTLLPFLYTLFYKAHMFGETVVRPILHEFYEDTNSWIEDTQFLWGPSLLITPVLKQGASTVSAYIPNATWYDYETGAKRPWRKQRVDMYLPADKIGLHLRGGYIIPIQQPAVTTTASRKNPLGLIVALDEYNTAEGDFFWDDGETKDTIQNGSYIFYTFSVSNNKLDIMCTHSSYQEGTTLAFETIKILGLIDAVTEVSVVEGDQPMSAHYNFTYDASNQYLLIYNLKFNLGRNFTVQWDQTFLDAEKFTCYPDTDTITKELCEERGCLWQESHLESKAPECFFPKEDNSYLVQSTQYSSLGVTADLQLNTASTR

The target of the first test is T1, α-glucosidase (yeast, type I) (Saccharomyces cerevisiae, UniProt P53341).
T1 construct: purchased Sigma Chemicals, U.S.A
T1 sequence (P53341 whole entry): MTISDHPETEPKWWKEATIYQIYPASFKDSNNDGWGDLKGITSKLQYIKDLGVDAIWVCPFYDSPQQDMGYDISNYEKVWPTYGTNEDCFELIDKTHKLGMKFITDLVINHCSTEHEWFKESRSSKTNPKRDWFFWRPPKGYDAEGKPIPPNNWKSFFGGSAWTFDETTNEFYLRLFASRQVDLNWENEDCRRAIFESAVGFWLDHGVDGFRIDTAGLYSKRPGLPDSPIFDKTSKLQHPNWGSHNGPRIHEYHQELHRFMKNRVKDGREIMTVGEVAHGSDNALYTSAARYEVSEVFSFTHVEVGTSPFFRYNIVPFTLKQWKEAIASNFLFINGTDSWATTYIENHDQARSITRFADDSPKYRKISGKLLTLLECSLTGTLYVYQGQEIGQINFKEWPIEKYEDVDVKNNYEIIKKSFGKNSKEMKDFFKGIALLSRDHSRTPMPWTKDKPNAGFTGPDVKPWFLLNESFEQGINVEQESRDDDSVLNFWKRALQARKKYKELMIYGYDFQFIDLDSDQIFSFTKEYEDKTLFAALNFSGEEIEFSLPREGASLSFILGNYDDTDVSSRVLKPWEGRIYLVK
Briefly: α-glucosidase inhibitory activity, p-nitrophenyl-α-D-glucopyranoside as substrate. It is filed as biochemical.
Conditions: not given
The protocol: The inhibitory activity of the compounds of this invention against α-glucosidase (yeast, type I, produced by Sigma Chemicals, U.S.A.), when p-nitrophenyl-α-D-glucopyranoside is used as a substrate, is determined by adding 0.5 ml of a solution of an inhibitor of this invention in 0.02M phosphate buffer (pH 6.8) and 0.25 ml of 0.01M p-nitrophenyl-α-D-glucopyranoside in the same buffer to 0.25 ml of a solution of α-glucosidase in the same buffer (0.005 mg/ml), allowing the reaction to proceed at 37° C. for 15 minutes, then adding 3 ml of 0.1M aqueous sodium carbonate solution to terminate the reaction, and measuring the absorbance of the reaction solution at 400 nm. The 50% inhibition concentration of the inhibitor is calculated from the inhibition rates (%) which are determined with inhibitory substance samples of three to five different concentrations.
(§1) When 0.05M maltose is used as a substrate, the inhibitory activity against maltase prepared from porcine intestinal mucosa is determined by measuring the amount of released D-glucose by use of glucose oxidase [Glucose B-Test Wako (a reagent for clinical diagnostic use for determining glucose, produced by Wako Pure Chemical Co. Japan)] to calculate the 50% inhibition concentration. The molar concentration required for 50% inhibition (IC50) of the α-glucosidase inhibitors represented by the formula [I], to inhibit activity of α-glucosidase (yeast), is shown in Table 1 and that to inhibit activity of maltase (porcine intestinal mucosa) is in Table 2.
With `CC(Cc1ccccc1)N[C@H]1C=C(CO)[C@@H](O)[C@H](O)[C@H]1O` (stereo partly drawn) [Example 21, N-(α-methylphenethyl)valienamine], the IC50 was 0.13 µM.

Staying with this test, now noted: Table 1; α-glucosidase (yeast); pH 6.8, 37° C., 15 minutes; read-out: IC50 (molar concentration required for 50% inhibition).
Regarding `OCC1=C[C@H](NCc2ccccc2)[C@H](O)[C@@H](O)[C@@H]1O`, the IC50 is 9.2 µM.
For the molecule `OCC1=C[C@H](NCc2cccs2)[C@H](O)[C@@H](O)[C@@H]1O`, the IC50 was found to be 38 µM.
Still for that read-out and setting: the value for `OCC1=C[C@H](NCc2ccco2)[C@H](O)[C@@H](O)[C@@H]1O` was 150 µM.
Same read-out and setting: the value for `OCC1=C[C@H](NCc2cccnc2)[C@H](O)[C@@H](O)[C@@H]1O` was 56 µM.
Same read-out and setting: the value for `Cc1ccc(CN[C@H]2C=C(CO)[C@@H](O)[C@H](O)[C@H]2O)cc1` was 20 µM; that for `COc1ccc(CN[C@H]2C=C(CO)[C@@H](O)[C@H](O)[C@H]2O)cc1` was 18 µM; that for `O=C(O)c1ccc(CN[C@H]2C=C(CO)[C@@H](O)[C@H](O)[C@H]2O)cc1` was 150 µM.
As to `CC(N[C@H]1C=C(CO)[C@@H](O)[C@H](O)[C@H]1O)c1ccccc1` (some centres unmarked), the IC50 worked out at 13 µM.
Still for that read-out and setting: the value for `CC(CN[C@H]1C=C(CO)[C@@H](O)[C@H](O)[C@H]1O)c1ccccc1` (some centres unmarked) was 13 µM; that for `OCC1=C[C@H](NCC=Cc2ccccc2)[C@H](O)[C@@H](O)[C@@H]1O` was 20 µM.
The same measure, in the same setting: then `OCC1=C[C@H](NCCCOc2ccccc2)[C@H](O)[C@@H](O)[C@@H]1O`, with 1.1 µM; and `OCC1=C[C@H](NCCCCCc2ccccc2)[C@H](O)[C@@H](O)[C@@H]1O`, with 0.75 µM.
The same measure, in the same setting: then `OCC1=C[C@H](NCC(c2ccccc2)c2ccccc2)[C@H](O)[C@@H](O)[C@@H]1O`, with 0.038 µM; and `OCC1=C[C@H](NCC2CCCCC2)[C@H](O)[C@@H](O)[C@@H]1O`, with 0.38 µM; and `CC(C)(C)c1cc(CN[C@H]2C=C(CO)[C@@H](O)[C@H](O)[C@H]2O)cc(C(C)(C)C)c1O`, with 12 µM.
On to `OCC1=C[C@H](NC[C@H](O)[C@@H](O)[C@H](O)[C@H](O)CO)[C@H](O)[C@@H](O)[C@@H]1O`, for which the IC50 amounted to 110 µM.
On the same count and under the same terms, then `OCC1=C[C@H](NC[C@H](O)[C@@H](O)[C@@H](O)[C@H](O)CO)[C@H](O)[C@@H](O)[C@@H]1O`, with 160 µM.
The same measure, in the same setting: the value for `OCC1=C[C@H](NC(CO)[C@@H](O)[C@H](O)[C@H](O)CO)[C@H](O)[C@@H](O)[C@@H]1O` (some centres unmarked) was 110 µM.
On the same count and under the same terms, the value for `OCC1=C[C@H](NC[C@@H](O)[C@@H](O)[C@H](O)[C@H](O)CO)[C@H](O)[C@@H](O)[C@@H]1O` was 100 µM; that for `OCC1=C[C@H](NC[C@@H](O)[C@H](O)[C@H](O)CO)[C@H](O)[C@@H](O)[C@@H]1O` was 120 µM.
Take `OCC1=C[C@H](NC[C@H](O)[C@H](O)[C@H](O)CO)[C@H](O)[C@@H](O)[C@@H]1O`: the IC50 is 90 µM.
On the same count and under the same terms, then `OCC1=C[C@H](NC[C@H](O)[C@@H](O)[C@H](O)CO)[C@H](O)[C@@H](O)[C@@H]1O`, with 110 µM.
Take `CCCCN[C@H]1C=C(CO)[C@@H](O)[C@H](O)[C@H]1O` [CH2 CH2 CH2 CH3, N-n-butylvalienamine]: the IC50 turned out to be 21 µM.
As to `OCC1=C[C@H](NCCc2ccccc2)[C@H](O)[C@@H](O)[C@@H]1O` [drawing 15], the IC50 turned out to be 1.8 µM.
In the case of `OCC1=C[C@H](NCC(O)c2ccccc2)[C@H](O)[C@@H](O)[C@@H]1O` (some centres unmarked) [drawing 16], the IC50 came to 1.1 µM.
Same read-out and setting: then `OCC1=C[C@H](NCCCc2ccccc2)[C@H](O)[C@@H](O)[C@@H]1O` [drawing 18], with 2.2 µM; and `OCC1=C[C@H](NCCCCc2ccccc2)[C@H](O)[C@@H](O)[C@@H]1O` [drawing 20], with 0.98 µM.
Same read-out and setting: the value for `OCC1=C[C@H](NCc2ccc(O)cc2)[C@H](O)[C@@H](O)[C@@H]1O` [drawing 23] was 5 µM.
Still for that read-out and setting: then `COc1ccccc1C(O)CN[C@H]1C=C(CO)[C@@H](O)[C@H](O)[C@H]1O` (some centres unmarked) [drawing 24], with 0.38 µM; and `CC(C)=CCC/C(C)=C/CN[C@H]1C=C(CO)[C@@H](O)[C@H](O)[C@H]1O` [drawing 27], with 1.7 µM; and `OCC1=C[C@H](NC(CO)CO)[C@H](O)[C@@H](O)[C@@H]1O` [drawing 29], with 66 µM.
As to `OCC1=C[C@H](NC(CO)[C@@H](O)[C@H](O)[C@@H](O)CO)[C@H](O)[C@@H](O)[C@@H]1O` (some centres unmarked) [drawing 37], the IC50 was determined as 130 µM.

A further test has as its target T2, saccharase (porcine intestinal mucosa) (Sus scrofa, UniProt P56729).
T2 construct: saccharase prepared from porcine intestinal mucosa; from tissue; host or cells: porcine intestinal mucosa
Briefly: inhibitory activity against saccharase. In kind it is biochemical.
Conditions: not given
The protocol: The inhibitory activity against saccharase prepared from porcine intestinal mucosa is determined by a similar method to that against maltase in accordance with the method described in Acta. Chem. Scand., 12, 1997-2006 (1958).
With `OCC1=C[C@H](NC2CCCCC2O)[C@H](O)[C@@H](O)[C@@H]1O` (some centres unmarked) [Example 36, N-(2-hydroxycyclohexyl)valienamine], the IC50 was found to be 0.17 µM.

A further test has as its system α-glucoside hydrolase. Nature of the test: suppression of α-glucoside hydrolase function (statement in words). It is filed as biochemical.
Conditions: not given
Turning to `N[C@H]1C=C(CO)[C@@H](O)[C@H](O)[C@H]1O` [valienamine], the “action of suppressing the function of α-glucoside hydrolase” value is “possesses a highly valuable action of suppressing the function of α-glucoside hydrolase”.

The target in the next test is maltase (porcine intestinal mucosa). Nature of the test: inhibitory activity against maltase, 0.05M maltose as substrate. To be noted: Table 2, read-out: IC50 (molar concentration required for 50% inhibition). It is filed as biochemical. The method, then:
as §1
In the case of `OCC1=C[C@H](NCc2ccc(Br)cc2)[C@H](O)[C@@H](O)[C@@H]1O`, the IC50 was determined as 75 µM.
The same measure, in the same setting: the value for `OCC1=C[C@H](NCC(O)COc2ccccc2)[C@H](O)[C@@H](O)[C@@H]1O` (some centres unmarked) was 24 µM; that for `OCC1=C[C@H](NC(CO)c2ccccc2)[C@H](O)[C@@H](O)[C@@H]1O` (some centres unmarked) was 14 µM.
Same read-out and setting: the value for `OCC1=C[C@H](NC(CO)C(O)c2ccccc2)[C@H](O)[C@@H](O)[C@@H]1O` (some centres unmarked) was 9.6 µM; that for `OCC1=C[C@H](NCc2ccc(O)c(O)c2)[C@H](O)[C@@H](O)[C@@H]1O` was 8.1 µM; that for `OCC1=C[C@H](NCCc2ccccc2)[C@H](O)[C@@H](O)[C@@H]1O` [drawing 38] was 11 µM.
With `OCC1=C[C@H](NCCCc2ccccc2)[C@H](O)[C@@H](O)[C@@H]1O` [drawing 39], the IC50 turned out to be 20 µM.
Regarding `OCC1=C[C@H](NCCCCc2ccccc2)[C@H](O)[C@@H](O)[C@@H]1O` [drawing 40], the IC50 is 80 µM.
Still for that read-out and setting: then `OCC1=C[C@H](NCC(O)c2ccccc2)[C@H](O)[C@@H](O)[C@@H]1O` (some centres unmarked) [drawing 41], with 3.2 µM; and `OCC1=C[C@H](NCc2ccc(O)cc2)[C@H](O)[C@@H](O)[C@@H]1O` [drawing 43], with 19 µM; and `CC(Cc1ccccc1)N[C@H]1C=C(CO)[C@@H](O)[C@H](O)[C@H]1O` (some centres unmarked) [drawing 46], with 2.4 µM.
Still for that read-out and setting: then `COc1ccccc1C(O)CN[C@H]1C=C(CO)[C@@H](O)[C@H](O)[C@H]1O` (some centres unmarked) [drawing 47], with 3.1 µM; and `CC(C)=CCC/C(C)=C/CN[C@H]1C=C(CO)[C@@H](O)[C@H](O)[C@H]1O` [drawing 48], with 5.2 µM; and `OCC1=C[C@H](NC(CO)CO)[C@H](O)[C@@H](O)[C@@H]1O` [drawing 49], with 14 µM.
The same measure, in the same setting: the value for `OCC1=C[C@H](NC(CO)[C@@H](O)[C@H](O)[C@@H](O)CO)[C@H](O)[C@@H](O)[C@@H]1O` (some centres unmarked) [drawing 50] was 14 µM.
